Data as given in PMC4508061, “Selectivity Profiling and Biological Activity of Novel β-Carbolines as Potent and Selective DYRK1 Kinase Inhibitors” (PLoS ONE, 2015).

Assays:
Assay in all cases: ProQinase radiometric kinase panel
Conditions in all cases: mean of 2 exp.
SGK1 = SGK1 (Homo sapiens, UniProt O00141)
RPS6KA2 = RPS6KA2 (Homo sapiens, UniProt Q15349)
CHK2 = CHK2 (Homo sapiens, UniProt O96017)
WNK2 = WNK2 (Homo sapiens, UniProt Q9Y3S1)
BLK = BLK (Homo sapiens, UniProt P51451)
ERBB4 = ERBB4 (Homo sapiens, UniProt Q15303)
FRK = FRK (Homo sapiens, UniProt P42685)
DDR2 = DDR2 (Homo sapiens, UniProt Q16832)
WEE1 = WEE1 (Homo sapiens, UniProt P30291)
TRK-A = TRK-A (Homo sapiens, UniProt P04629)
PAK3 = PAK3 (Homo sapiens, UniProt O75914)
MARK1 = MARK1 (Homo sapiens, UniProt Q9P0L2)
EEF2K = EEF2K (Homo sapiens, UniProt O00418)
SRPK1 = SRPK1 (Homo sapiens, UniProt Q96SB4)
Sequence of SRPK1 (Q96SB4 whole entry): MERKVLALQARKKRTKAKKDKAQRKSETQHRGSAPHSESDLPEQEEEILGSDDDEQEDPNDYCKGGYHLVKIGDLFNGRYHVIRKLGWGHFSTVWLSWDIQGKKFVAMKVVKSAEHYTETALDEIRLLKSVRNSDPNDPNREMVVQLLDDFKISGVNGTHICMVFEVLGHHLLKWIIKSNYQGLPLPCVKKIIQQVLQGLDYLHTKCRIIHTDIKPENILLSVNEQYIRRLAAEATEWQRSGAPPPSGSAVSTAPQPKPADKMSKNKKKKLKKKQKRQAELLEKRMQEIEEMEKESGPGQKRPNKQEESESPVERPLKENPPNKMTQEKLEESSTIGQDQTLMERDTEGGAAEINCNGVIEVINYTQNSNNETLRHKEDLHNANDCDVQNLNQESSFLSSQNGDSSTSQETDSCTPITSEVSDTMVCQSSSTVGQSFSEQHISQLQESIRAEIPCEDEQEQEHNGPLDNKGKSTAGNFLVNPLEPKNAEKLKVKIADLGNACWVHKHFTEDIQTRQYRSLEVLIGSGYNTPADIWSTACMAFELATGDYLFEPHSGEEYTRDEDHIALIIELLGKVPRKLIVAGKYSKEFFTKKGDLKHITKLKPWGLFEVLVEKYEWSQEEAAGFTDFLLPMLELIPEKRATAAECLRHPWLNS

RPS6KA6 = RPS6KA6 (Homo sapiens, UniProt Q9UK32)
FGF-R1 = FGF-R1 (Homo sapiens, UniProt P11362)
PKC-zeta = PKC-zeta (Homo sapiens, UniProt Q05513)
ERK1 = ERK1 (Homo sapiens, UniProt P27361)
SGK2 = SGK2 (Homo sapiens, UniProt Q9HBY8)
HCK = HCK (Homo sapiens, UniProt P08631)
MAP3K9 = MAP3K9 (Homo sapiens, UniProt P80192)
MAP3K11 = MAP3K11 (Homo sapiens, UniProt Q16584)
Sequence of MAP3K11 (Q16584 whole entry): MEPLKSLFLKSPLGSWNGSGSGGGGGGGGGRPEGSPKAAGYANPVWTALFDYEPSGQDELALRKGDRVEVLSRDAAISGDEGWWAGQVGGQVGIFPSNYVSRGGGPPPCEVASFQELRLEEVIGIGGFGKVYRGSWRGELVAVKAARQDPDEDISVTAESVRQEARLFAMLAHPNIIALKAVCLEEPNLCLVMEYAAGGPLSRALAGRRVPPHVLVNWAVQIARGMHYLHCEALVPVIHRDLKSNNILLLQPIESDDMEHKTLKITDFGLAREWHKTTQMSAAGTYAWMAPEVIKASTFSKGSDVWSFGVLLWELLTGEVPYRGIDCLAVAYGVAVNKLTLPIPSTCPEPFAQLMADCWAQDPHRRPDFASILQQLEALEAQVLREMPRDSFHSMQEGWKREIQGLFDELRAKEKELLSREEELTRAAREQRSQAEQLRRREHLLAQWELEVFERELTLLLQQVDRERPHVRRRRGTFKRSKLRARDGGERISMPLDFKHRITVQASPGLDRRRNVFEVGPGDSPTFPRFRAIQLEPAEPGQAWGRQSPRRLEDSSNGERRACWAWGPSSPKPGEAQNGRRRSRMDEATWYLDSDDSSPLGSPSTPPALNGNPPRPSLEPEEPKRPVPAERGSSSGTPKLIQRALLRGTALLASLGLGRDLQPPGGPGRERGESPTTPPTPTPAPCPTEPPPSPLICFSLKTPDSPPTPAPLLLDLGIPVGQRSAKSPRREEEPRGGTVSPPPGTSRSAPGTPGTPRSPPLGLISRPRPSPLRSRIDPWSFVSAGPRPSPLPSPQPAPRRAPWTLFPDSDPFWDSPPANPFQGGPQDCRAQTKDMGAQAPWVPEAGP

CAMK1D = CAMK1D (Homo sapiens, UniProt Q8IU85)
CAMK4 = CAMK4 (Homo sapiens, UniProt Q16566)
Sequence of CAMK4 (Q16566 whole entry): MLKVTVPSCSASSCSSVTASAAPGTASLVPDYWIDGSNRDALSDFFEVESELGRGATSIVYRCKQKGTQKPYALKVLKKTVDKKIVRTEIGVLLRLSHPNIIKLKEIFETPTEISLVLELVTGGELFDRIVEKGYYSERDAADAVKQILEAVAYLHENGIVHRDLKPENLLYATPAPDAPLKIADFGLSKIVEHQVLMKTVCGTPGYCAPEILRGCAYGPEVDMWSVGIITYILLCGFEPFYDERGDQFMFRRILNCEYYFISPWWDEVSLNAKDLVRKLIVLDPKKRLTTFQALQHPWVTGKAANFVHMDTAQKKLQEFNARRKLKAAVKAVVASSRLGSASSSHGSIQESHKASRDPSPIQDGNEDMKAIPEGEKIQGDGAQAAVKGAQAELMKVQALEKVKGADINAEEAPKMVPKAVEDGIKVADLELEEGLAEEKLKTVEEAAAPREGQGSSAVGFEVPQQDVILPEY

mTOR = mTOR (Homo sapiens, UniProt P42345)
PLK1 = PLK1 (Homo sapiens, UniProt P53350)
Sequence of PLK1 (P53350 whole entry): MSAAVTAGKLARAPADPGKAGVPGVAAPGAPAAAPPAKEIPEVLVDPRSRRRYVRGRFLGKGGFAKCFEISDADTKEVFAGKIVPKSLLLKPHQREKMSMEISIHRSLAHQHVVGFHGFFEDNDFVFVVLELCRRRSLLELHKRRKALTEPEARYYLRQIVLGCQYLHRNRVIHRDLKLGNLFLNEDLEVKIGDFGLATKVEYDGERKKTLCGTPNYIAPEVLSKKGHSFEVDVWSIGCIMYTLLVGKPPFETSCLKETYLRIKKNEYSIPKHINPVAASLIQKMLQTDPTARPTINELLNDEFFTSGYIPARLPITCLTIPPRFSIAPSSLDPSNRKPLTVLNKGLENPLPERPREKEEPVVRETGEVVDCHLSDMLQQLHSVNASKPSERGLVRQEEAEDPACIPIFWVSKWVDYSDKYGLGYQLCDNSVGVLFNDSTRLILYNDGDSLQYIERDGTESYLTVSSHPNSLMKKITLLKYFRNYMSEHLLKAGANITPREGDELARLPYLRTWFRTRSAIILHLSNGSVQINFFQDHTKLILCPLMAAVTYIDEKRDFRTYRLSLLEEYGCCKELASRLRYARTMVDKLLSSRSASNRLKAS

PLK3 = PLK3 (Homo sapiens, UniProt Q9H4B4)
ACV-R1B = ACV-R1B (Homo sapiens, UniProt P36896)
RPS6KA1 = RPS6KA1 (Homo sapiens, UniProt Q15418)
VEGF-R2 = VEGF-R2 (Homo sapiens, UniProt P35968)
LTK = LTK (Homo sapiens, UniProt P29376)
FYN = FYN (Homo sapiens, UniProt P06241)
Sequence of FYN (P06241 whole entry): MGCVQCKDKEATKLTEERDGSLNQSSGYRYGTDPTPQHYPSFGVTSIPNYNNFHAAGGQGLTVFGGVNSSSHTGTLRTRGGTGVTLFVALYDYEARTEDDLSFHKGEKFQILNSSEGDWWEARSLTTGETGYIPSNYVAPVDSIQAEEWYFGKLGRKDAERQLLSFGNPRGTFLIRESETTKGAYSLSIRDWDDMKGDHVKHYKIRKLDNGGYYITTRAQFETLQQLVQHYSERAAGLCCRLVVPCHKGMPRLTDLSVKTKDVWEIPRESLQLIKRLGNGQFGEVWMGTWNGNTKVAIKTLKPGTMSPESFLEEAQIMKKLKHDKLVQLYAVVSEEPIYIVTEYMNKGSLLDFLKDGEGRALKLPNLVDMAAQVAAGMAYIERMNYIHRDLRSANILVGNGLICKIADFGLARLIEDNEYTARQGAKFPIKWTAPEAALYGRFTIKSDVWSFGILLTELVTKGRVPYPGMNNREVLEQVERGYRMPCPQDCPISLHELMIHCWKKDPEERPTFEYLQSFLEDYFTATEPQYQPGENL

MYLK3 = MYLK3 (Homo sapiens, UniProt Q32MK0)
PRKG2 = PRKG2 (Homo sapiens, UniProt Q13237)
Sequence of PRKG2 (Q13237 whole entry): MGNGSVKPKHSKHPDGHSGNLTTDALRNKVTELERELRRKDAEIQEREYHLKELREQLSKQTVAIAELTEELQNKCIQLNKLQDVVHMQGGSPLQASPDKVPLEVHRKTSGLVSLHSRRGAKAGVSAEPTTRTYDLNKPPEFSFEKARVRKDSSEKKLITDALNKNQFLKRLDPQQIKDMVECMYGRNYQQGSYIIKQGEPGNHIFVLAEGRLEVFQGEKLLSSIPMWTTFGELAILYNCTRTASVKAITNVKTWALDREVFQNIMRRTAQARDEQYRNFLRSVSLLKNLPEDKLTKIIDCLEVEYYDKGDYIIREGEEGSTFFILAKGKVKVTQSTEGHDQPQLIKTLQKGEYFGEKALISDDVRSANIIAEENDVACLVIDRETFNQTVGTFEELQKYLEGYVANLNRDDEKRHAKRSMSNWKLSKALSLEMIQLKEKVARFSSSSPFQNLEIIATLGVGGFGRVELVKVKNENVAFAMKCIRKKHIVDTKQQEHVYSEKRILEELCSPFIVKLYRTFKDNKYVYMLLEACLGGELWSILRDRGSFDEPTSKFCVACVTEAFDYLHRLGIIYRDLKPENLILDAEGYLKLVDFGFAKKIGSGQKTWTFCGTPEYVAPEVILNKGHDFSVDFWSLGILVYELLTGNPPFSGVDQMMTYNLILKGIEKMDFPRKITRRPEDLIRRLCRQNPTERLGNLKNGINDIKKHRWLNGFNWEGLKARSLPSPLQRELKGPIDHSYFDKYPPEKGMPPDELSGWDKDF

NEK7 = NEK7 (Homo sapiens, UniProt Q8TDX7)
INSR-R = INSR-R (Homo sapiens, UniProt P14616)
GRK6 = GRK6 (Homo sapiens, UniProt P43250)
COT = COT (Homo sapiens, UniProt P41279)
Sequence of COT (P41279 whole entry): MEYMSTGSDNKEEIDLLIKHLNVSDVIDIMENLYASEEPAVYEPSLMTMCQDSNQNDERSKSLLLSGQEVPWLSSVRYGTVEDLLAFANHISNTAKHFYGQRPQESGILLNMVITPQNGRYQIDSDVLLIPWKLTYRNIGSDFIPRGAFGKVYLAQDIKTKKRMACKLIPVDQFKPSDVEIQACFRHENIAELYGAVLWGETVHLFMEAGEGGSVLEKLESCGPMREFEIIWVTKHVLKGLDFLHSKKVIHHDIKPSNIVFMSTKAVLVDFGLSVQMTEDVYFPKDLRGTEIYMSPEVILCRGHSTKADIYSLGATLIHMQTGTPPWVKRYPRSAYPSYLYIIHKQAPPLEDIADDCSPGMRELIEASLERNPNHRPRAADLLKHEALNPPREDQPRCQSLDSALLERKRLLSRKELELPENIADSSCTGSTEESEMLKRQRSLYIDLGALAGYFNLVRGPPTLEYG

MKNK2 = MKNK2 (Homo sapiens, UniProt Q9HBH9)
Sequence of MKNK2 (Q9HBH9 whole entry): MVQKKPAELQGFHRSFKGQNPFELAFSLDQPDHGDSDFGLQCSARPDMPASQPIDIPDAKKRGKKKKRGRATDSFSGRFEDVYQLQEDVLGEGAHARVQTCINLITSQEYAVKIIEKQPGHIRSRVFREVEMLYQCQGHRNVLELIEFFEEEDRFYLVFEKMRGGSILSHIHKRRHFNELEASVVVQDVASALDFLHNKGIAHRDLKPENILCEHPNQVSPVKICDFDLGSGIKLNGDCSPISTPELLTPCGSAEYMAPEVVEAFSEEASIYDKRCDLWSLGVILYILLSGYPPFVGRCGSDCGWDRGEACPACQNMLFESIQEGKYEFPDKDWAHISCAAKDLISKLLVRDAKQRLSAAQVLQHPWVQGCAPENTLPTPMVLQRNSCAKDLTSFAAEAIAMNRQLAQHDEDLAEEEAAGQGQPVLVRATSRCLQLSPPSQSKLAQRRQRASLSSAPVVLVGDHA

WNK1 = WNK1 (Homo sapiens, UniProt Q9H4A3)

For `COc1ccc2c3ccnc(Cl)c3n(CC#N)c2c1` [AnnH75], the “residual activity at 1 µM, Mean” value (SGK1) was 91 % of control, the “residual activity at 1 µM, Mean” value (RPS6KA2) was 97 % of control and the “residual activity at 1 µM, Mean” value (CHK2) was 102 % of control. The “residual activity at 1 µM, Mean” value (WNK2) was 98 % of control, the “residual activity at 1 µM, Mean” value (BLK) was 100 % of control and the “residual activity at 1 µM, Mean” value (ERBB4) was 90 % of control. For the same compound, the “residual activity at 1 µM, Mean” value (FRK) was 94 % of control, the “residual activity at 1 µM, Mean” value (DDR2) was 97 % of control and the “residual activity at 1 µM, Mean” value (WEE1) was 100 % of control. For the same compound, the “residual activity at 1 µM, Mean” value (TRK-A) was 84 % of control, the “residual activity at 1 µM, Mean” value (PAK3) was 95 % of control and the “residual activity at 1 µM, Mean” value (MARK1) was 101 % of control. For the same compound, the “residual activity at 1 µM, Mean” value (EEF2K) was 98 % of control, the “residual activity at 1 µM, Mean” value (SRPK1) was 111 % of control and the “residual activity at 1 µM, Mean” value (RPS6KA6) was 98 % of control. The “residual activity at 1 µM, Mean” value (FGF-R1) was 97 % of control, the “residual activity at 1 µM, Mean” value (PKC-zeta) was 97 % of control and the “residual activity at 1 µM, Mean” value (ERK1) was 87 % of control. For the same compound, the “residual activity at 1 µM, Mean” value (SGK2) was 99 % of control, the “residual activity at 1 µM, Mean” value (HCK) was 101 % of control and the “residual activity at 1 µM, Mean” value (MAP3K9) was 100 % of control. For the same compound, the “residual activity at 1 µM, Mean” value (MAP3K11) was 98 % of control, the “residual activity at 1 µM, Mean” value (CAMK1D) was 102 % of control and the “residual activity at 1 µM, Mean” value (CAMK4) was 111 % of control. The “residual activity at 1 µM, Mean” value (mTOR) was 90 % of control, the “residual activity at 1 µM, Mean” value (PLK1) was 93 % of control and the “residual activity at 1 µM, Mean” value (PLK3) was 96 % of control. For the same compound, the “residual activity at 1 µM, Mean” value (ACV-R1B) was 97 % of control, the “residual activity at 1 µM, Mean” value (RPS6KA1) was 63 % of control and the “residual activity at 1 µM, Mean” value (VEGF-R2) was 98 % of control. For the same compound, the “residual activity at 1 µM, Mean” value (LTK) was 99 % of control, the “residual activity at 1 µM, Mean” value (FYN) was 92 % of control and the “residual activity at 1 µM, Mean” value (MYLK3) was 94 % of control. The “residual activity at 1 µM, Mean” value (PRKG2) was 85 % of control, the “residual activity at 1 µM, Mean” value (NEK7) was 93 % of control and the “residual activity at 1 µM, Mean” value (INSR-R) was 97 % of control. For the same compound, the “residual activity at 1 µM, Mean” value (GRK6) was 98 % of control, the “residual activity at 1 µM, Mean” value (COT) was 88 % of control and the “residual activity at 1 µM, Mean” value (MKNK2) was 92 % of control. For the same compound, the “residual activity at 1 µM, Mean” value (WNK1) was 98 % of control.
